One assay has as its system hypothalamic slices. Particulars: hypothalamic slices in vitro; cited from earlier work.
The target in another assay is T1, Y1R (Homo sapiens, UniProt P25929).
T1 sequence (P25929 1-384): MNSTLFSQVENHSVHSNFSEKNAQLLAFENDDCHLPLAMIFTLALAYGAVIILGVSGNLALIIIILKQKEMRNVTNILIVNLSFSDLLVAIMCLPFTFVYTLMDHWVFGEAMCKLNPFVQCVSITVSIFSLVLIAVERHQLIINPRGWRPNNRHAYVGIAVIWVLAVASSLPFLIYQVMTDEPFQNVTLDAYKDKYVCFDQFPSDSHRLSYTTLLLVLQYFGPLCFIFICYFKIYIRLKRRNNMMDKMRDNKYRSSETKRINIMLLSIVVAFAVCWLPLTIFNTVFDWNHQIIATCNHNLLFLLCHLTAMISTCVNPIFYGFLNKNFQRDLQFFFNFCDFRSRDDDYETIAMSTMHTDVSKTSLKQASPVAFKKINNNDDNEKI
Briefly: FLIPR assay, Y1R. The class given is cell-based.

A further assay concerns the target Y4R (Homo sapiens, UniProt P50391). As to the kind of experiment: FLIPR assay, Y4R. It is filed as cell-based.
The subject of assay [1] is C57BL/6J male mice or DIO (diet-induced obese) male mice. Briefly: In Vivo Reduction of Food Intake Assay. Further details: species or system mouse. As to the method: In this Example, compounds of Examples 5, 44, 73 and 74 were administered to four sets of mice in four separate experiments to measure effect on food intake. C57BL/6J male mice or DIO (diet-induced obese) male mice were used in the experiments, with eight mice per experimental group. The mice were maintained on a regular light cycle (6 AM—ON; 6 PM—OFF). The mice were fasted for 24 hours prior to testing with ad lib access to water. During the test, mice were housed one per cage.
The compounds of Examples 5 and 44 were administered intraperitoneally; and the compounds of Examples 73 and 74 were administered subcutaneously. In each Figure, cumulative and time interval food consumptions were measured in individual mice. Mean food consumption and percent change from vehicle were calculated for each time interval. Data was analyzed by using two-tailed Student t-test.

Where [2] appears, read: administered intraperitoneally, mice fasted 24 hours, 1, 2, 4, 6 and 24 hours after dosing.
[3] abbreviates: administered subcutaneously, mice fasted 24 hours, 1, 2, 4, 6, 24 hours and longer intervals.

*1 amine or outer side, *2 acyl side, *3 side chain or, on linkers, in order; H or OH if unused. Where a SMILES comes first, the peptide text is derived from it. Bridges are numbered along the chain shown (N, C = ends). [ ]: non-standard residue; d: D form. X1 = O=C(COc1ccc2[nH]cc(CCN[*:1])c2c1)[*:2]; Nle = CCCC[C@H](N)C(=O)O

A word on the EC50: it is the concentration needed to bring the measured effect to its halfway point. Read a low EC50 as an effect from little substance.

Sequence of Y4R (P50391 whole entry): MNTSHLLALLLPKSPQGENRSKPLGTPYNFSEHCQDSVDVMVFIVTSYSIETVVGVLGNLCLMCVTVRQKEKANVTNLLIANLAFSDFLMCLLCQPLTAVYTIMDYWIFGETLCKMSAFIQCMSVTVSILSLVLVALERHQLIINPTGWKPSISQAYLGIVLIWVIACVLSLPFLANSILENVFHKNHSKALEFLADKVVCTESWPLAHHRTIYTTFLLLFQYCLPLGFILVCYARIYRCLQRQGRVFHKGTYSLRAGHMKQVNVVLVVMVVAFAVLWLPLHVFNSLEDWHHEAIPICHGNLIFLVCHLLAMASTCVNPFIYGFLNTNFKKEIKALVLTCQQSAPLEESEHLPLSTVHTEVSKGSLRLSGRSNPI
Description for Y1R: (§1) Loading Buffer (Calcium-3 Assay Kit, Molecular Devices) was prepared by dissolving the contents of one vial (Express Kit) into 1000 ml Hank's Balanced Salt Solution containing 20 mM HEPES and 5 mM probenecid. Aliquots of 25 μL of diluted dye was dispensed into the cell plates and the plates are then incubated for 1 hour at 37° C.
(§2) During the incubation, test compounds were prepared at 3.5× the desired concentration in HBSS (20 mM HEPES)/0.05% BSA/1% DMSO and transferred to a 384 well plate for use on FLIPR.
(§3) After incubation, both the cell and compound plates were brought to the FLIPR and 20 μL of the diluted compounds were transferred to the cell plates by the FLIPR. During the assay, fluorescence readings were taken simultaneously from all 384 wells of the cell plate every 1.5 seconds. Five readings were taken to establish a stable baseline, and then 20 μL of sample was rapidly (30 μL/sec) and simultaneously added to each well of the cell plate. The fluorescence was continuously monitored before, during and after sample addition for a total elapsed time of 100 seconds. Responses (increase in peak fluorescence) in each well following addition was determined. The initial fluorescence reading from each well, prior to ligand stimulation, was used as a zero baseline value for the data from that well. The responses are expressed as % of maximal response of the positive control.
Description for Y4R: as §1, §2, §3

In the case of `N=C(N)NCCC[C@H](NC(=O)CC1(CC(=O)N2CCN(C3c4ccccc4NC(=O)c4ccccc43)CC2)CCCC1)C(=O)NCCn1c(=O)n(-c2ccccc2)n(-c2ccccc2)c1=O` (stereo partly shown) [BIIE0246], in the assay with hypothalamic slices, the NPY release result was “increases NPY release”.

As to `CCCC[C@H](NC(=O)[C@@H](NC(C)=O)[C@@H](C)CC)C(=O)NCCc1c[nH]c2ccc(OCC(=O)N[C@@H](CCCNC(=N)N)C(=O)N[C@@H](Cc3c[nH]cn3)C(=O)N[C@@H](Cc3ccc(O)cc3)C(=O)N[C@H]3CCCCNC(=O)C[C@@H](C(=O)N[C@@H](CCCNC(=N)N)C(=O)N[C@@H](CCC(N)=O)C(=O)N[C@@H](CCCNC(=N)N)C(=O)N[C@@H](Cc4ccc(O)cc4)C(N)=O)NC(=O)[C@H](C(C)C)NC(=O)[C@H](CC(C)C)NC(=O)[C@H](CC(N)=O)NC3=O)cc12` [Example 53] (Ac-I[Nle][X1]RHYKNLVDRQRY-NH2; lactam 7-11), the concentration for a half-maximal effect (EC50) at Y1R and on Y4R was over 5 µM each time.

“Ac-Ile-Nle-Pqa-Arg-His-Tyr-Leu-Asn-Leu-Val-Thr-Arg-Gln-Arg-Tyr-NH2 [Example 44]”: in assay [1] (setting [2]), the “reduction of food intake” value was “reduction of food intake was demonstrated”.

“H-Ile-Lys-Pqa-Arg-His-Tyr-Leu-Asn-Leu-Val-Thr-Arg-Gln-Arg-Tyr-NH2 [Example 5]”: in assay [1] (setting [2]), the “reduction of food intake” value is on record as “reduction of food intake was demonstrated”.

As to “PEG (10,000)-Ile-Nle-Pqa-Arg-His-Tyr-Leu-Asn-Leu-Val-Thr-Arg-Gln-Arg-Tyr-NH2 [Example 73]”, the “reduction of food intake” value in assay [1] (setting [3]) was “reduction of food intake was demonstrated”.

With “PEG (30,000)-Ile-Nle-Pqa-Arg-His-Tyr-Leu-Asn-Leu-Val-Thr-Arg-Gln-Arg-Tyr-NH2 [Example 74]”, in assay [1] (setting [3]), the “reduction of food intake” value was “reduction of food intake was demonstrated”.

These data come from patent US7410949B2, “Neuropeptide-2 receptor (Y-2R) agonists and uses thereof” (Hoffmann-La Roche Inc., priority 2005, dated 2008).
